Source: patent publication US20260200939A1, “MOLECULAR GLUE DEGRADER COMPOUNDS AND USES THEREOF” (Novartis AG, priority 2022, published 2026)

Assays:
[1] = biological target: T1, BRD4 long (Homo sapiens, UniProt O60885); experiment: BRD4 (long) degradation assay, Western blotting; assay type: cell-based; conditions: HEK293T cells
T1 construct: endogenous in cells; host or cells: HEK293T
How it was run: (§1)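 Cell lines were grown at 37° C with 5% CO2 (HEK293T and C33A in DMEM, A549 in F-12K, 22RV1, LNCaP and Mino in RPMI-1640, K562 and MV-4-11 in IMDM, all with 10% FBS). Lysates were BCA-normalized, then SDS/PAGE Western blots were probed with target-specific antibodies and read by IR680/IR800 fluorescent secondaries on Li-Cor.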

[2] = biological target: T2, BRD4 short (Homo sapiens, UniProt O60885); experiment: BRD4 (short) degradation assay, Western blotting; assay type: cell-based; conditions: HEK293T cells
T2 construct: endogenous in cells; host or cells: HEK293T
How it was run: as §1

[3] = biological target: T3, Recombinant RNF126 (Homo sapiens, UniProt Q9BV68); experiment: RNF126 Binding Assay, gel-based ABPP
T3 construct: FLAG (C); host or cells: HEK293T
How it was run: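 FLAG-tagged human RNF126, expressed in HEK293T and purified on anti-FLAG resin, was pretreated with DMSO or covalent ligand for 30 min at 37 °C in PBS. IA-rhodamine was then added for 1 h at RT in the dark. Probe labelling was read by SDS-PAGE in-gel fluorescence.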

[4] = test system: HEK293T cells; experiment: Quantitative TMT proteomic profiling in HEK293T cells; assay type: cell-based
Protocol: Cells were treated with either DMSO vehicle or compound (Compound 130, 1 μM) for 24 h and lysate was prepared as described above. Briefly, 25-100 μg protein from each sample was reduced, alkylated and tryptically digested overnight. Individual samples were then labeled with isobaric tags using commercially available TMTsixplex (Thermo Fisher Scientific, P/N 90061) kits, in accordance with the manufacturer's protocols. Tagged samples (20 μg per sample) were combined, dried with SpeedVac, resuspended with 300 μL 0.1% TFA in H2O, and fractionated using high pH reversed-phase peptide fractionation kits (Thermo Scientific, P/N 84868) according to manufacturer's protocol. Fractions were dried with SpeedVac, resuspended with 50 μL 0.1% FA in H2O, and analyzed by LC-MS/MS as described below.
Quantitative TMT-based proteomic analysis was performed as previously described using a Thermo Eclipse with FAIMS LC-MS/MS (King, E. A. et al. Chemoproteomics-Enabled Discovery of a Covalent Molecular Glue Degrader Targeting NF-κB. 2022.05.18.492542 Preprint at https://doi.org/10.1101/2022.05.18.492542 (2022)). […] Only peptide-to-spectrum matches that are unique assignments to a given identified protein within the total dataset are considered for protein quantitation. […]

[5] = biological target: T4, BTK (Homo sapiens, UniProt Q06187); experiment: BTK degradation in MINO lymphoma cancer cells, Western blotting; assay type: cell-based
T4 construct: endogenous in cells; host or cells: Mino
Protocol: C33A cells were purchased from American Type Culture Collection (ATCC) and were cultured in Dulbecco's Modified Eagle Medium (DMEM) containing 10% (v/v) fetal bovine serum (FBS) and maintained at 37° C. with 5% CO2. 22RV1 cells were purchased from the ATCC and were cultured in RPMI-1640 Medium containing 10% (v/v) FBS and maintained at 37° C. with 5% CO2. HEK293T cells were obtained from the UC Berkeley Cell Culture Facility and were cultured in DMEM containing 10% (v/v) FBS and maintained at 37° C. with 5% CO2. K562 cells were obtained from the UC Berkeley Cell Culture Facility and were cultured in Iscove's Modified Dulbecco's Medium (IMDM) containing 10% (v/v) FBS and maintained at 37° C. with 5% CO2. MV-4-11 cells were obtained from the ATCC and were cultured in IMDM containing 10% (v/v) FBS and maintained at 37° C. with 5% CO2. A549 cells were obtained from the ATCC and were cultured in F-12K Medium containing 10% (v/v) FBS and maintained at 37° C. with 5% CO2. Mino cells were obtained from the ATCC and were cultured in RPMI-1640 Medium containing 10% (v/v) FBS and maintained at 37° C. with 5% CO2. […]
Cells were washed twice with cold PBS, scraped, and pelleted by centrifugation (700 g, 5 min, 4° C.). […] Proteome concentrations were determined using BCA assay and lysate was diluted to appropriate working concentrations. […]

T3 sequence (Q9BV68 whole entry): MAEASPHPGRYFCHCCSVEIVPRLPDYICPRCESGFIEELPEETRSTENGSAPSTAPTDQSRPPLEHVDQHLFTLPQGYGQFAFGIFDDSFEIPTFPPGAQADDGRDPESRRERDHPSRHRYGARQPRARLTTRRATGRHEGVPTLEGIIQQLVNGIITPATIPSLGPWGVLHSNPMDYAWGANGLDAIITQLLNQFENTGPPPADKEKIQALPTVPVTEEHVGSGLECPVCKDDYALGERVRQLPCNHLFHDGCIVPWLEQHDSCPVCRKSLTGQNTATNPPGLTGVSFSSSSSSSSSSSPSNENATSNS
T4 sequence (Q06187 whole entry): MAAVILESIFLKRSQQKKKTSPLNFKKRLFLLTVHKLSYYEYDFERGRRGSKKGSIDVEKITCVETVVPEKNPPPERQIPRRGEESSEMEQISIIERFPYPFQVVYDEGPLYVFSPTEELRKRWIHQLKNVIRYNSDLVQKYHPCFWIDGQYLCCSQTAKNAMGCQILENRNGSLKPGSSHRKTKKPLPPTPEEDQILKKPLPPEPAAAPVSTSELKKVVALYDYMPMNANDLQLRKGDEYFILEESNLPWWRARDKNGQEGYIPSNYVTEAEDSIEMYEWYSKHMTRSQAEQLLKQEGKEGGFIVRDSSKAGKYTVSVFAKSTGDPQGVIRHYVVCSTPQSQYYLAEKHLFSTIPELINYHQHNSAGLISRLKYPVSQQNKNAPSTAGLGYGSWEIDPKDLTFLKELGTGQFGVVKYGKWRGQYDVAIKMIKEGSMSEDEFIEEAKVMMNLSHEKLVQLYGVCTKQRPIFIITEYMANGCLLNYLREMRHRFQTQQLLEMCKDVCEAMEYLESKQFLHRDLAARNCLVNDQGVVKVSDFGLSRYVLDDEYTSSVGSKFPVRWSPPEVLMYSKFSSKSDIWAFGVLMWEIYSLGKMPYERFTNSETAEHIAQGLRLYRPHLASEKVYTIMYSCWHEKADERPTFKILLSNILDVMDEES

Row | Structure (SMILES) | degradation of BRD4 long isoform, in words [1] | degradation of BRD4 short isoform, in words [2] | binding to RNF126 (gel-based ABPP), in words [3] | selectivity of degradation by quantitative proteomic profiling [4] | degradation of BTK, in words [5]
1 | COc1ccc(C(=O)/C=C/C(=O)N2CCN(C(=O)C[C@@H]3N=C(c4ccc(Cl)cc4)c4c(sc(C)c4C)-n4c(C)nnc43)CC2)cc1 [Compound 130, (S,E)-1-(4-(2-(4-(4-chlorophenyl)-2,3,9-trimethyl-6H-thieno[3,2-f][1,2,4]triazolo[4,3-a][1,4]diazepin-6-yl)acetyl)piperazin-1-yl)-4-(4-methoxyphenyl)but-2-ene-1,4-dione] | degradation of both the long and short isoforms of BRD4 in HEK293T cells in a dose-responsive, time-dependent, and proteasome-dependent manner | degradation of both the long and short isoforms of BRD4 in HEK293T cells in a dose-responsive, time-dependent, and proteasome-dependent manner | potent binding | relatively selective degradation of BRD4 | 
2 | COc1ccc(C(=O)/C=C/C(=O)N2CCC[C@@H](n3nc(-c4ccc(Oc5ccccc5)cc4)c4c(N)ncnc43)C2)cc1 [Compound 131] |  |  | potent binding |  | degradation of BTK in MINO lymphoma cancer cells
